In brackets after ≈: the same amount, converted by molar mass. Like-named read-outs stand apart in the source and are kept apart here.

Data set [1] in a line: Thermodynamic solubility (24 h) at 37° C. Type of data set: physicochemical. The conditions noted are these: for solubility thermodynamic at 24 h: 37 °C, thermodynamic from solid. The procedure: Approximately 10-20 mg of 1-(4-{[6-Amino-5-(4-phenoxy-phenyl)-pyrimidin-4-ylamino]-methyl}-4-fluoro-piperidin-1-yl)-propenone was weighed into a 4 mL glass vial. 1 mL of SGF medium (simulated gastric fluid, pH 1.2), FaSSIF medium (fasted state intestinal medium, pH 6.5), or USP Phosphate buffer pH 7.4 was added and the suspension was shaken for 24 h at 450 rpm at 37° C. After 1 hour, 6 hours and after 24 hours, the vials were checked for the presence of undissolved compound and the pH was measured. If necessary, the pH was adjusted after 1 hour and 6 hours. The solid liquid separation was carried out using 1 mL syringe and 0.2 μm syringe filter. Clear filtrate was analyzed by HPlC after suitable dilution to measure the amount of API dissolved.

The nature of data set [2]: Water Vapour Sorption isotherm (25° C., DVS-Intrinsic). Type of data set: physicochemical. The following applies: for water uptake levels: 25° C. The procedure: DSC scan of trimeric form A1 was acquired on a Mettler-Toledo DSC 1 with a heating rate of 5 K/min, using nitrogen purge gas at 50 mL/min. TGA scan of trimeric form A1 was acquired on a Mettler-Toledo TGA 851 with a heating rate of 5 K/min, using nitrogen purge gas at 50 mL/min. […] Eur. Criteria (section 5.11.). Water Vapour Sorption isotherm was acquired on a DVS-Intrinsic system from SMS. […] Dissolution level of trimeric form A1 in Simulated Gastric Fluid [SGF, pH 1.2] at 37° C. was determined to be approximately 2.4 mg/mL after 2 h (see example 12).
DSC scan of hydrate form NF2 was acquired on a Mettler-Toledo DSC 1 with a heating rate of 5 K/min, using nitrogen purge gas at 50 mL/min. TGA scan of hydrate form NF2 was acquired on a Mettler-Toledo TGA 851 with a heating rate of 5 K/min, using nitrogen purge gas at 50 mL/min. […] Eur. Criteria (section 5.11.). Water Vapour Sorption isotherm was acquired on a DVS-Intrinsic system from SMS.
In the DSC, a phase transition to trimeric form A1 occurred above 150° C., and the trimeric A1 form has a melting peak onset greater than 220° C. […] DSC scan of the anhydrous form NF9 was acquired on a Mettler-Toledo DSC 1 with a heating rate of 5 K/min, using nitrogen purge gas at 50 mL/min. TGA scan of anhydrous form NF9 was acquired on a Mettler-Toledo TGA 851 with a heating rate of 5 K/min, using nitrogen purge gas at 50 mL/min. […] Eur. Criteria (section 5.11.). […] Water Vapour Sorption isotherm was acquired on a DVS-Intrinsic system from SMS.
This is followed by an exothermic event in the DSC, assigned to a phase transition to trimeric form A1. Finally, the melting of trimeric form A1 with melting peak onset at temperatures greater than 220° C. […] DSC scan of the hydrate of trimeric boronic acid adduct form NF7 was acquired on a Mettler-Toledo DSC 1 with a heating rate of 5 K/min, using nitrogen purge gas at 50 mL/min. TGA scan of the hydrate of trimeric boronic acid adduct form NF7 was acquired on a Mettler-Toledo TGA 851 with a heating rate of 5 K/min, using nitrogen purge gas at 50 mL/min. […] Eur. Criteria (section 5.11.). […]

Data set [3] addresses LMP7 subunit of the immunoproteasome (Homo sapiens, UniProt P20618+P28062). The conditions noted are these: Singh et al, Br. J. Hematology 152(2): 155-163; cited from earlier work.

With `O=C(N[C@@H](Cc1coc2ccccc12)B(O)O)[C@@H]1C[C@H]2CC[C@@H]1O2` [Form NF2], the “Thermodynamic solubility FaSSIF pH 6.5” value in data set [1] (Fasted-State Simulated Intestinal Fluid pH 6.5, 37° C., 24 h) was 0.7 mg/mL. In data set [1] (Simulated Gastric Fluid pH 1.2, 37° C., 24 h), the “Thermodynamic solubility SGF pH 1.2” value was 0.7 mg/mL. Besides, the thermodynamic solubility at 24 h is about 700 µg/mL (≈ 2130 µM) in data set [1] (fasted-state simulated intestinal fluid (FaSSIF), pH 6.5, fassif, Fasted-State Simulated Intestinal Fluid pH 6.5, 37° C., 24 h, read-out: Thermodynamic solubility FaSSIF pH 6.5) and about 700 µg/mL (≈ 2130 µM) in data set [1] (simulated gastric fluid (SGF), pH 1.2, simulated gastric fluid, Simulated Gastric Fluid pH 1.2, 37° C., 24 h, read-out: Thermodynamic solubility SGF pH 1.2). The “solubility in biorelevant media (in words)” value in data set [1] (listed as Hydrate form NF2) is reported as “highly soluble in biorelevant media”; in data set [1] (listed as hydrate form NF2), “good solubility in biorelevant media”. Further, the “hygroscopicity classification according to Ph. Eur. Criteria (section 5.11.)” value in data set [2] is recorded as “slightly hygroscopic”. Besides, the water uptake levels is on record as at most 1 % m/m in data set [2] (relative humidity range 0-80% rh) and at most 5 % m/m in data set [2] (relative humidity range 90-98% rh).

Take `CC1=C(C(=O)N[C@H](C)C(=O)N[C@@H](Cc2c[nH]c3ccccc23)C(=O)N[C@@H](Cc2ccccc2)C(=O)[C@@]2(C)CO2)Cc2ccccc21` [PR-924]: the “selectivity as inhibitor of the LMP7 subunit” value in data set [3] is 100 fold.

As a reminder, the thermodynamic solubility is the concentration in solution at equilibrium with solid.

The values above are taken from US20240287102A1, “NOVEL CRYSTALLINE FORMS OF [(1R)-2-(1-BENZOFURAN-3-YL)-1-{[(1S,2R,4R)-7-OXABICYCLO[2.2.1]HEPTAN-2-YL]FORMAMIDO}ETHYL]BORONIC ACID, ADDUCTS THEREOF, AND PROCESSES TO OBTAIN” (Merck Patent GmbH, priority 2021, published 2024).
